This passage reports IC50 results from patent US7605156B2, “Methods for the use of inhibitors of cytosolic phospholipase A2” (Wyeth, priority 2001, dated 2009).

The experiment has as its target T1, cPLA2 (Homo sapiens, UniProt P47712).
T1 sequence (P47712 1-749): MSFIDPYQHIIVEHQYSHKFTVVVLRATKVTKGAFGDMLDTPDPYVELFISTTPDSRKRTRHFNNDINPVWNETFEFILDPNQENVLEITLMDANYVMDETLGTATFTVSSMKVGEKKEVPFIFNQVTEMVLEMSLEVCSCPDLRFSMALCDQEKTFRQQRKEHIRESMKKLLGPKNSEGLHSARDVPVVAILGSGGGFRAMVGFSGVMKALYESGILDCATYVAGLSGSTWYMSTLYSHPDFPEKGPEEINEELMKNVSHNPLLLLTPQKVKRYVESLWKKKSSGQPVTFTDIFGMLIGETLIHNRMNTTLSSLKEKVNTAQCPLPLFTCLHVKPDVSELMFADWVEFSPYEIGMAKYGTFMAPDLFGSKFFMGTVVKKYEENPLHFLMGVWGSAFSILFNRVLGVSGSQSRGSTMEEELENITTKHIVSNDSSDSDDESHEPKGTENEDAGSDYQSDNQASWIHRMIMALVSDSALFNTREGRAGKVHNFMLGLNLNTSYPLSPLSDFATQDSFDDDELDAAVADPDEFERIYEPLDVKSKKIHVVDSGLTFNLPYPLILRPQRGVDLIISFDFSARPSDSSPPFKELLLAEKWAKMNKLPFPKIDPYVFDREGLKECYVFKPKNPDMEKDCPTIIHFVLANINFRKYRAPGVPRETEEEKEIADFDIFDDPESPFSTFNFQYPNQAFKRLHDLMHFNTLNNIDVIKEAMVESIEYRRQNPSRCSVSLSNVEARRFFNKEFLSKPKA
Nature of the experiment: Coumarine assay (hydrolysis of 7-hydroxycoumarinyl 6-heptenoate). It counts as biochemical. Conditions: 60 μM 7-hydroxycoumarinyl 6-heptenoate, pH 7.5; read-out: Coumarin IC50.

Experimental: Inhibitors were mixed with 200 μL assay buffer (80 mM Heped, pH 7.5, 1 mM EDTA) containing 60 μM 7-hydroxycoumarinyl 6-heptenoate. The reaction was initiated by adding 4 μg cPLA2 in 50 μL assay buffer. Hydrolysis of the 7-hydroxycounarimyl 6-heptenoate ester was monitored in a fluorometer by exciting at 360 nm and monitoring emission at 460 nm. Enzyme activity is proportional to the increase in emission at 460 nm per minute. In the presence of a cPLA2 inhibitor, the rate of increase is less.

For the molecule `O=C(O)c1ccc(OCCc2c(CCNS(=O)(=O)c3cc(Cl)c(F)cc3F)n(C(c3ccccc3)c3ccccc3)c3ccc(Cl)cc23)cc1` [Example 169, 4-{2-[1-Benzhydryl-5-chloro-2-(2-{[(5-chloro-2,4-difluorophenyl)sulfonyl]amino}ethyl)-1H-indol-3-yl]ethoxy}benzoic acid], the IC50 (as a rule, the concentration at which inhibition is half-maximal) turned out to be 460 nM.

In the case of `O=C(O)c1ccc(OCCc2c(CCNS(=O)(=O)CSc3ccc(Cl)cc3Cl)n(C(c3ccccc3)c3ccccc3)c3ccc(Cl)cc23)cc1` [Example 287, 4-[2-(1-benzhydryl-5-chloro-2-{2-[([[(2,4-dichlorophenyl)sulfanyl]methyl}sulfonyl)amino]ethyl}-1H-indol-3-yl)ethoxy]benzoic acid], the IC50 came to 420 nM.

Turning to `CC(CCl)c1ccccc1S(=O)(=O)NCCc1c(CCCc2ccc(C(=O)O)cc2)c2cc(Cl)ccc2n1C(c1ccccc1)c1ccccc1` (centres unmarked) [Example 277, 4-(3-{1-Benzhydryl-5-chloro-2-[2-({[2-(2-chloro-1-methylethyl)phenyl]sulfonyl}amino)ethyl]-1H-indol-3-yl}propyl)benzoic acid], the IC50 stood at 600 nM.

Turning to `O=C(O)c1ccc(OCCc2c(CCNS(=O)(=O)c3ccc(Cl)cc3Cl)n(C(c3ccccc3)c3ccccc3)c3ccc(Cl)cc23)cc1` [Example 159, 4-{2-[1-benzhydryl-5-chloro-2-(2-{[(2,4-dichlorophenyl)sulfonyl]amino}ethyl)-1H-indol-3-yl]ethoxy}benzoic acid], the IC50 amounted to 650 nM.

As to `O=C(O)c1ccc(CCCc2c(CCNS(=O)(=O)c3c(Cl)cc(Cl)cc3Cl)n(C(c3ccccc3)c3ccccc3)c3ccc(Cl)cc23)cc1` [Example 154, 4-{3-[1-benzhydryl-5-chloro-2-(2-([(2,4,6-trichlorophenyl)sulfonyl]amino}ethyl)-1H-indol-3-yl]propyl}benzoic acid], the IC50 is 350 nM.

For `O=C(O)c1ccc(CCCc2c(CCNS(=O)(=O)Cc3ccccc3[N+](=O)[O-])n(C(c3ccccc3)c3ccccc3)c3ccc(Cl)cc23)cc1` [Example 56, 4-{3-[5-Chloro-1-(diphenylmethyl)-2-(2-{[(2-nitrobenzyl)sulfonyl]amino}ethyl)-1H-indol-3-yl]propyl}benzoic acid], the IC50 came out at 130 nM.

On to `Cc1c(Cl)cccc1S(=O)(=O)NCCc1c(CCOc2ccc(C(=O)O)cc2)c2cc(Cl)ccc2n1C(c1ccccc1)c1ccccc1` [Example 241, 4-{2-[1-benzhydryl-5-chloro-2-(2-{[(3-chloro-2-methylphenyl)sulfonyl]amino}ethyl)-1H-indol-3-yl]ethoxy}benzoic acid], for which the IC50 is 540 nM.

On to `Cc1nn(C)c(C)c1S(=O)(=O)NCCc1c(CCCc2ccc(C(=O)O)cc2)c2cc(Cl)ccc2n1C(c1ccccc1)c1ccccc1` [Example 212, 4-{3-[1-benzhydryl-5-chloro-2-(2-{[(1,3,5-trimethyl-1H-pyrazol-4-yl)sulfonyl]amino}ethyl)-1H-indol-3-yl]propyl}benzoic acid], for which the IC50 came out at 180 nM.

As to `CS(=O)(=O)c1ccccc1S(=O)(=O)NCCc1c(CCCc2ccc(C(=O)O)cc2)c2cc(Cl)ccc2n1C(c1ccccc1)c1ccccc1` [Example 204, 4-(3-{1-Benzhydryl-5-chloro-2-[2({[2-(methylsulfonyl)phenyl]sulfonyl}amino)ethyl]-1H-indol-3-yl}propyl)benzoic acid], the IC50 worked out at 200 nM.

Take `Cc1cc(C)c(S(=O)(=O)NCCc2c(CCCc3ccc(C(=O)O)cc3)c3cc(Cl)ccc3n2C(c2ccccc2)c2ccccc2)c(C)c1` [Example 267, 4-(3-{1-Benzhydryl-5-chloro-2-[2-(2,4,6-trimethyl-benzenesulfonylamino)-ethyl]-1H-indol-3-yl}-propyl)-benzoic acid]: the IC50 was 74 nM.

In the case of `O=C(O)c1ccc(CCCc2c(CCNS(=O)(=O)c3ccc(Cl)c4nonc34)n(C(c3ccccc3)c3ccccc3)c3ccc(Cl)cc23)cc1` [Example 172, 4-{3-[1-benzhydryl-5-chloro-2-(2-{[(7-chloro-2,1,3-benzoxadiazol-4-yl)sulfonyl]amino}ethyl)-1H-indol-3-yl]propyl}benzoic acid], the IC50 stood at 350 nM.

For the molecule `Cc1cccc(C)c1S(=O)(=O)NCCc1c(CCOc2ccc(C(=O)O)cc2)c2cc(Cl)ccc2n1C(c1ccccc1)c1ccccc1` [Example 271, 4-{2-[1-benzhydryl-5-chloro-2-(2-{[(2,6-dimethylphenyl)sulfonyl]amino}ethyl)-1H-indol-3-yl]ethoxy}benzoic acid], the IC50 turned out to be 150 nM.

With `O=C(O)c1ccc(CCCc2c(CCNS(=O)(=O)c3ccc(Cl)cc3Cl)n(C(c3ccccc3)c3ccccc3)c3ccc(Cl)cc23)cc1` [Example 152, 4-{3-[1-benzhydryl-5-chloro-2-(2-{[(2,4-dichlorophenyl)sulfonyl]-amino}ethyl)-1H-indol-3-yl]propyl}benzoic acid], the IC50 is 320 nM.

Take `O=C(O)c1ccc(OCCc2c(CCNS(=O)(=O)c3c(Cl)cccc3Cl)n(C(c3ccccc3)c3ccccc3)c3ccc(Cl)cc23)cc1` [Example 160, 4-{2-[1-benzhydryl-5-chloro-2-(2-{[(2,6-dichlorophenyl)sulfonyl]amino}ethyl)-1H-indol-3-yl]ethoxy}benzoic acid]: the IC50 came out at 190 nM.

As for `O=C(O)c1ccc(CCCc2c(CCNS(=O)(=O)C3CC3)n(C(c3ccccc3)c3ccccc3)c3ccc(Cl)cc23)cc1` [Example 280, 4-[3-(1-benzhydryl-5-chloro-2-{2-[(cyclopropylsulfonyl)amino]-ethyl}-1H-indol-3-yl)propyl]benzoic acid], the IC50 was 350 nM.

On to `O=C(O)c1ccc(CCCc2c(CCNS(=O)(=O)c3c(F)cc(F)cc3F)n(C(c3ccccc3)c3ccccc3)c3ccc(Cl)cc23)cc1` [Example 199, 4-(3-{1-Benzhydryl-5-chloro-2-[2-(2,4,6-trifluoro-benzenesulfonylamino)-ethyl]-1H-indol-3-yl}-propyl)-benzoic acid], for which the IC50 was 450 nM.

Regarding `O=C(O)c1ccc(CCCc2c(CCNS(=O)(=O)c3c(F)cccc3C(F)(F)F)n(C(c3ccccc3)c3ccccc3)c3ccc(Cl)cc23)cc1` [Example 268, 4-(3-{1-benzhydryl-5-chloro-2-[2-({[2-fluoro-6-(trifluoromethyl)phenyl]sulfonyl}amino)ethyl]-1H-indol-3-yl}propyl)benzoic acid], the IC50 amounted to 90 nM.

Regarding `O=C(O)c1ccc(CCCc2c(CCNS(=O)(=O)c3ccc(N4CCOCC4)nc3)n(C(c3ccccc3)c3ccccc3)c3ccc(Cl)cc23)cc1` [Example 181, 4-{3-[1-benzhydryl-5-chloro-2-(2-{[(6-morpholin-4-ylpyridin-3-yl)sulfonyl]amino}ethyl)-1H-indol-3-yl]propyl}benzoic acid], the IC50 worked out at 320 nM.

For `Cc1cccc(Cl)c1S(=O)(=O)NCCc1c(CCOc2ccc(C(=O)O)c(F)c2)c2cc(Cl)ccc2n1C(c1ccccc1)c1ccccc1` [Example 191, 4-(2-{1-Benzhydryl-5-chloro-2-[2-(2-chloro-6-methyl-benzenesulfonylamino)-ethyl]-1H-indol-3-yl}-ethoxy)-2-fluoro-benzoic acid], the IC50 is 200 nM.

For the molecule `O=C(O)c1ccc(CCCc2c(CCNS(=O)(=O)c3cccc(OC(F)(F)F)c3)n(C(c3ccccc3)c3ccccc3)c3ccc(Cl)cc23)cc1` [Example 201, 4-(3-{1-Benzhydryl-5-chloro-2-[2-(3-trifluoromethoxy-benzenesulfonylamino)-ethyl]-1H-indol-3-yl}-propyl)-benzoic acid], the IC50 is 350 nM.

As to `O=C(O)c1ccc(OCCc2c(CCNS(=O)(=O)c3ccccc3OC(F)(F)F)n(C(c3ccccc3)c3ccccc3)c3ccc(Cl)cc23)cc1` [Example 231], the IC50 is 250 nM.

Regarding `Cc1cccc(C)c1S(=O)(=O)NCCc1c(CCCc2ccc(C(=O)O)cc2)c2cc(Cl)ccc2n1C(c1ccccc1)c1ccccc1` [Example 270, 4-(3-[1-benzhydryl-5-chloro-2-(2-{[(2,6-dimethylphenyl)sulfonyl]amino}ethyl)-1H-indol-3-yl]propyl}benzoic acid], the IC50 amounted to 140 nM.

Consider `O=C(O)c1ccc(OCCc2c(CCNS(=O)(=O)CSc3ccc(F)cc3F)n(C(c3ccccc3)c3ccccc3)c3ccc(Cl)cc23)cc1` [Example 288, 4-[2-(1-benzhydryl-5-chloro-2-{2-[({[(2,4-difluorophenyl)thio]methyl}sulfonyl)amino]ethyl}-1H-indol-3-yl)ethoxy]benzoic acid], for which the IC50 was found to be 400 nM.

Consider `CC(C)Oc1ccccc1S(=O)(=O)NCCc1c(CCCc2ccc(C(=O)O)cc2)c2cc(Cl)ccc2n1C(c1ccccc1)c1ccccc1` [Example 186, 4-(3-{1-Benzhydryl-5-chloro-2-[2-(2-isopropoxy-benzenesulfonylamino)-ethyl]-1H-indol-3-yl}-propyl)benzoic acid], for which the IC50 worked out at 100 nM.

In the case of `Nc1ccccc1CS(=O)(=O)NCCc1c(CCOc2ccc(C(=O)O)cc2)c2cc(Cl)ccc2n1C(c1ccccc1)c1ccccc1` [Example 16], the IC50 is 980 nM.

For the molecule `O=C(O)c1ccc(OCCc2c(CCNS(=O)(=O)Cc3ccccc3)n(C(c3ccccc3)c3ccccc3)c3ccc(N4CCOCC4)cc23)cc1` [Example 33, 4-[2-(1-benzhydryl-2-{2-[(benzylsulfonyl)amino]ethyl}-5-morpholin-4-yl-1H-indol-′3-yl)ethoxy]benzoic acid], the IC50 was found to be 2900 nM.
